Results taken from US7119049B2, “Oxathiinecarboxamides” (Bayer Cropscience AG, priority 2002, dated 2006).
Where two headings read alike, the source gives them in different places.

What was measured:
Podosphaera leucotricha = assay: Podosphaera Test (Apple)/protective; type: in vivo; conditions: 240 h, read-out: Efficacy in %
Procedure: Podosphaera Test (Apple)/Protective
• Solvents: 24.5 Parts by weight of acetone 24.5 Parts by weight of dimethylacetamide • Emulsifier: 1.0 Part by weight of alkylaryl polyglycol ether
(§1) To produce a suitable preparation of active compound, 1 part by weight of active compound is mixed with the stated amount of solvent and emulsifier, and the concentrate is diluted with water to the desired concentration.
To test for protective activity, young plants are sprayed with the preparation of active compound at the stated application rate. After the spray coating has dried on, the plants are inoculated with an aqueous spore suspension of the apple mildew pathogen Podosphaera leucotricha. The plants are then placed in a greenhouse at about 23° C. and a relative atmospheric humidity of about 70%.
(§2) Evaluation is carried out 10 days after the inoculation. 0% means an efficacy which corresponds to that of the control, whereas an efficacy of 100% means that no infection is observed.

Venturia inaequalis = assay: Venturia Test (Apple)/protective; type: in vivo; conditions: 240 h, read-out: Efficacy in %
Procedure: (§3) To produce a suitable preparation of active compound, 1 part by weight of active compound is mixed with the stated amounts of solvent and emulsifier, and the concentrate is diluted with water to the desired concentration.
To test for protective activity, young plants are sprayed with the preparation of active compound at the stated application rate. After the spray coating has dried on, the plants are inoculated with an aqueous conidia suspension of the apple scab pathogen Venturia inaequalis and then remain in an incubation cabin at about 20° C. and 100% relative atmospheric humidity for 1 day.
The plants are then placed in a greenhouse at about 21° C. and a relative atmospheric humidity of about 90%.
as §2

Alternaria solani = assay: Alternaria Test (Tomato)/protective; type: in vivo; conditions: 48 h, read-out: Efficacy in %
Procedure: as §3
To test for protective activity, young tomato plants are sprayed with the preparation of active compound at the stated application rate. 1 day after the treatment, the plants are inoculated with an aqueous spore suspension of Alternaria solani. The plants are then placed in an incubation cabin at about 20° C. and 100% relative atmospheric humidity.
Evaluation is carried out 2 days after the inoculation. 0% means an efficacy which corresponds to that of the control, whereas an efficacy of 100% means that no infection is observed.

[1] = logP determination by HPLC (reversed-phase C 18), acidic range; type: physicochemical; conditions: pH 2.3, HPLC reversed-phase C 18, 43° C., 0.1% aqueous phosphoric acid/acetonitrile
Procedure: The logP values given in the Preparation Examples were determined in accordance with EEC Directive 79/831 Annex V.A8 by HPLC (High Performance Liquid Chromatography) using a reversed-phase column (C 18). Temperature: 43° C.
Mobile phases for the determination in the acidic range: 0.1% aqueous phosphoric acid, acetonitrile; linear gradients from 10% acetonitrile to 90% acetonitrile.
Calibration was carried out using unbranched alkan-2-ones (having 3 to 16 carbon atoms) with known logP values (determination of the logP values by the retention times using linear interpolation between two successive alkanones).

Puccinia recondita = assay: Puccinia Test (Wheat)/protective; type: in vivo; conditions: protective, 500 g/ha, evaluation 10 days after inoculation
Procedure: as §3
(§4) To test for protective activity, young plants are sprayed with the preparation of active compound at the stated application rate. After the spray coating has dried on, the plants are sprayed with a conidia suspension of Puccinia recondita. The plants remain in an incubation cabin at 20° C. and 100% relative atmospheric humidity for 48 hours.
The plants are then placed in a greenhouse at a temperature of about 20° C. and a relative atmospheric humidity of about 80% to promote the development of rust pustules.
as §2

Pyrenophora teres = Pyrenophora teres Test (Barley)/protective; type: in vivo; conditions: protective, 500 g/ha, evaluation 7 days after inoculation
Procedure: as §1
as §4, with “Pyrenophora teres.” for “Puccinia recondita.”
The plants are then placed in a greenhouse at temperature of about 20° C. and a relative atmospheric humidity of about 80%.
Evaluation is carried out 7 days after the inoculation. 0% means an efficacy which corresponds to that of the control, whereas an efficacy of 100% means that no infection is observed.

| SMILES | pest or weed control at 100 g/ha (Podosphaera leucotricha; apple, protective, application rate 100 g/ha, evaluation 10 days after inoculation) [%] | pest or weed control at 100 g/ha (Venturia inaequalis; apple, protective, 100 g/ha, evaluation 10 days after inoculation) [%] | pest or weed control at 100 g/ha (Alternaria solani; tomato, protective, 100 g/ha, evaluation 2 days after inoculation) [%] | chromatographic logP ([1]; reversed-phase C18 HPLC column) | pest or weed control at 100 g/ha (Podosphaera leucotricha) [%] | pest or weed control at 100 g/ha (Venturia inaequalis) [%] | pest or weed control at 100 g/ha (Alternaria solani) [%] | chromatographic logP [1] | Efficacy in % (Puccinia recondita) [%] | Efficacy in % (Pyrenophora teres) [%] |
| --- | --- | --- | --- | --- | --- | --- | --- | --- | --- | --- |
| CC1=C(C(=O)Nc2ccccc2-c2ccc(Cl)cc2F)SCCO1 [Example 1, N-(4′-chloro-2′-fluoro-1,1′-biphenyl-2-yl)-2-methyl-5,6-dihydro-1,4-oxathiine-3-carboxamide] | 99 | 100 | 94 | 3.61 |  |  |  |  |  |  |
| CC1=C(C(=O)Nc2ccccc2-c2ccc(F)c(Cl)c2)SCCO1 [Example 10] |  |  |  |  | 93 | 100 | 94 | 3.7 |  |  |
| CC1=C(C(=O)Nc2ccccc2-c2ccc(Cl)c(F)c2)SCCO1 [Example 9] |  |  |  |  | 100 | 100 | 100 | 3.67 | 100 | 95 |
| CC1=C(C(=O)Nc2ccccc2-c2ccc(F)c(F)c2)SCCO1 [Example 12] |  |  |  |  |  | 100 | 95 | 3.38 |  |  |
| CC1=C(C(=O)Nc2ccccc2-c2ccc(Cl)cc2C)SCCO1 [Example 8] |  |  |  |  | 96 | 99 | 94 | 4.26 |  |  |
| CC1=C(C(=O)Nc2ccccc2-c2ccc(Cl)c(Cl)c2)SCCO1 [Example 6] |  |  |  |  | 100 | 100 | 100 | 4.02 | 100 |  |
| CC1=C(C(=O)Nc2ccccc2-c2ccc(Cl)c(C(F)(F)F)c2)SCCO1 [Example 13] |  |  |  |  |  | 99 | 94 | 4.03 |  |  |
| CC1=C(C(=O)Nc2ccccc2-c2ccc(Cl)c(C)c2)SCCO1 [Example 15] |  |  |  |  | 98 | 100 | 96 | 4.17 |  |  |
| CC1=C(C(=O)Nc2ccccc2-c2ccc(Cl)cc2)SCCO1 [Example 17] |  |  |  |  |  | 93 | 93 | 3.69 |  | 100 |
| CC1=C(C(=O)Nc2ccccc2-c2ccc(Cl)cc2Cl)SCCO1 [Example 7] |  |  |  |  | 100 | 100 | 98 |  |  |  |
| CC1=C(C(=O)Nc2ccccc2-c2ccc(C#N)cc2)SCCO1 [Example 19] |  |  |  |  |  |  |  | 2.74 |  | 93 |
| CC1=C(C(=O)Nc2c(F)cccc2-c2ccc(Cl)c(Cl)c2)SCCO1 [Example 16] |  |  |  |  | 90 | 100 | 95 | 3.53 |  |  |
